Earlier results as cited in patent publication US11077150B2, “Methods and compositions for treatment of eye conditions” (priority 2018, dated 2021).

Experiments:
[1] = rat model of DR
CB2 receptors = CB2 receptors (Homo sapiens, UniProt P34972)
[2] = 75 symptomatic patients; nine-month trial; eye drops
[3] = topically applied in light mineral oil; volunteers
[4] = oral doses of up to 600 mg; elderly subjects

Chain of CB2 receptors (P34972 whole entry): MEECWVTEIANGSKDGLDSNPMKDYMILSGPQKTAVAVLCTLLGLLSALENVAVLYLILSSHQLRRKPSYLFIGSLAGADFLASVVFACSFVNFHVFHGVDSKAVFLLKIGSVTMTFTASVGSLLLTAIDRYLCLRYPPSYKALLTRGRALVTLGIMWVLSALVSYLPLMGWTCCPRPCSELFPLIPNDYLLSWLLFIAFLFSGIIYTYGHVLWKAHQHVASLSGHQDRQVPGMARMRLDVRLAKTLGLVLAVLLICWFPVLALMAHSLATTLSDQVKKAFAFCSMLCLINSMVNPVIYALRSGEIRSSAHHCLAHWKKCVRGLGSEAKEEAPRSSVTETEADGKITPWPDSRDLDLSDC

In the case of `C=C(C)[C@@H]1CCC(C)=C[C@H]1c1c(O)cc(CCCCC)cc1O` [Cannabidiol, cannabidiol], the “oxidative stress and neurotoxicity” value [1] is listed as “significantly reduced”, the retinal cell death [1] is listed as “prevented” and the “affinity for CB2 receptors” value (CB2 receptors) is listed as “low affinity”. The water solubility was “very low”.

For `CC(=O)NCCC(=O)N[C@@H](Cc1cnc[nH]1)C(=O)O` [N-acetyl carnosine], the glare sensitivity [2] is given as “significant improvement” and the visual acuity [2] is given as “improvement”.

In the case of `CCCCCc1cc(O)c2c(c1)OC(C)(C)[C@@H]1CCC(C)=C[C@@H]21` [THC, Δ^9-tetrahydrocannabinol], the adverse effects [3] is listed as “burning sensation, lid swelling” and the “effect on interocular pressure” value [3] is listed as “did not improve”.

In the case of `O=C(O)CCCCC1CCSS1` (stereo not drawn) [lipoic acid, α-lipoic acid], the tolerability [4] is given as “well tolerated”.
